The conditions of series [1]: cited from earlier work.
Series [2] is described as follows: PXRD study of crystal form stability on storage in stability chambers. In kind it is physicochemical. As for the experimental part:
Ibrutinib Form APO-I can be characterized by a PXRD diffractogram comprising, among other peaks, characteristic peaks, expressed in degrees 2θ (±0.2°), at 5.1°, 7.6° and 12.5°. Preferably, the PXRD diffractogram further comprises at least three peaks, expressed in degrees 2θ (±0.2°), selected from the group consisting of: 10.1°, 11.1°, 14.2°, 15.4°, 16.3°, 17.3° and 18.7°. More preferably, the PXRD diffractogram further comprises peaks, expressed in degrees 2θ (±0.2°), at 10.1°, 11.1°, 14.2°, 15.4°, 16.3°, 17.3° and 18.7°. PXRD studies of capped and uncapped samples of Ibrutinib Form APO-I have shown that this crystal form is stable following storage in stability chambers maintained at 27° C./60% RH for at least 31 days and 40° C./75% RH for at least 21 days.
Ibrutinib Form APO-II can be characterized by a PXRD diffractogram comprising, among other peaks, characteristic peaks, expressed in degrees 2θ (±0.2°), at 6.4°, 10.1° and 12.8°. Preferably, the PXRD diffractogram further comprises at least three peaks, expressed in degrees 2θ (±0.2°), selected from the group consisting of: 13.8°, 17.6°, 18.4°, 19.4°, 20.4°, 21.0°, 21.7°, 23.2°, 24.1° and 24.9°. More preferably, the PXRD diffractogram further comprises peaks, expressed in degrees 2θ (±0.2°), at 13.8°, 17.6°, 18.4°, 19.4°, 20.4°, 21.0°, 21.7°, 23.2°, 24.1° and 24.9°. PXRD studies of capped and uncapped samples of Ibrutinib Form APO-II have shown that this crystal form is stable following storage in stability chambers maintained at 27° C./60% RH and 40° C./75% RH for at least 25 days.
Ibrutinib Form APO-IV can be characterized by a PXRD diffractogram comprising, among other peaks, characteristic peaks, expressed in degrees 2θ (±0.2°), at 6.4°, 10.2° and 12.9°. Preferably, the PXRD diffractogram further comprises at least three peaks, expressed in degrees 2θ (±0.2°), selected from the group consisting of: 13.9°, 17.7°, 18.4°, 19.4°, 20.5°, 21.3°, 21.8°, 23.2°, 24.2° and 24.9°. More preferably, the PXRD diffractogram further comprises peaks, expressed in degrees 2θ (±0.2°), at 13.9°, 17.7°, 18.4°, 19.4°, 20.5°, 21.3°, 21.8°, 23.2°, 24.2° and 24.9°. PXRD studies of uncapped samples of Ibrutinib Form APO-IV have shown that this crystal form is stable following storage in a stability chambers maintained at 40° C./75% RH for at least 11 months.
Data were acquired on a PANanalytical X-Pert Pro MPD diffractometer with fixed divergence slits and an X'Celerator RTMS detector. The diffractometer was configured in Bragg-Brentano geometry; data was collected over a 2-theta range of 3° to 40° using CuKα radiation at a power of 40 mA and 45 kV. CuKβ radiation was removed using a divergent beam nickel filter. A step size of 0.017° was used. Samples were rotated to reduce preferred orientation effects. Samples were lightly ground prior to analysis.

[3] abbreviates: 27° C./60% RH, capped and uncapped samples.
[4] abbreviates: 40° C./75% RH, capped and uncapped samples.

Structures are written as SMILES.

As for `C=CC(=O)N1CCCC(n2nc(-c3ccc(Oc4ccccc4)cc3)c3c(N)ncnc32)C1` (stereo not shown) [Form A], in series [1] (drug substance in IMBRUVICA, per AusPAR), the solubility result is “pH dependent solubility”.

`C=CC(=O)N1CCCC(n2nc(-c3ccc(Oc4ccccc4)cc3)c3c(N)ncnc32)C1` (stereo not shown) [Form B]: in series [1] (reported for other anhydrous forms), the aqueous solubility result is on record as “low aqueous solubility”.

Turning to `C=CC(=O)N1CCCC(n2nc(-c3ccc(Oc4ccccc4)cc3)c3c(N)ncnc32)C1` (stereo not shown) [Form APO-I], the “crystal form stable following storage (PXRD)” value in series [2] (setting [3]) is on record as “at least 31 days”; in series [2] (setting [4]), “at least 21 days”.

Take `C=CC(=O)N1CCCC(n2nc(-c3ccc(Oc4ccccc4)cc3)c3c(N)ncnc32)C1` (stereo not shown) [Form APO-IV]: the “crystal form stable following storage (PXRD)” value in series [2] (40° C./75% RH, uncapped samples) was “at least 11 months”.

In the case of `C=CC(=O)N1CCCC(n2nc(-c3ccc(Oc4ccccc4)cc3)c3c(N)ncnc32)C1` (stereo not shown) [Form APO-II], the “crystal form stable following storage (PXRD)” value in series [2] (setting [3]) and in series [2] (setting [4]) was “at least 25 days” throughout.

The values are drawn from patent publication US10183024B2, “Crystalline forms of ibrutinib” (Apotex Inc., priority 2016, dated 2019).
